This is an account of results in article PMC5495814, “The impact of the butterfly effect on human parainfluenza virus haemagglutinin-neuraminidase inhibitor design” (Scientific Reports, 2017).

The target in assay [1] is hPIV-3 HN neuraminidase function (Human parainfluenza 3 virus, UniProt P08492). The experiment in a line: biochemical. Also on record: species or system human parainfluenza virus type 3 (hPIV-3, strain C-243). As to conditions: for IC50: NI IC50, purified hPIV-3, MUN substrate, pH 4.6, means of 3 independent experiments.
Sequence of hPIV-3 HN neuraminidase function (P08492 whole entry): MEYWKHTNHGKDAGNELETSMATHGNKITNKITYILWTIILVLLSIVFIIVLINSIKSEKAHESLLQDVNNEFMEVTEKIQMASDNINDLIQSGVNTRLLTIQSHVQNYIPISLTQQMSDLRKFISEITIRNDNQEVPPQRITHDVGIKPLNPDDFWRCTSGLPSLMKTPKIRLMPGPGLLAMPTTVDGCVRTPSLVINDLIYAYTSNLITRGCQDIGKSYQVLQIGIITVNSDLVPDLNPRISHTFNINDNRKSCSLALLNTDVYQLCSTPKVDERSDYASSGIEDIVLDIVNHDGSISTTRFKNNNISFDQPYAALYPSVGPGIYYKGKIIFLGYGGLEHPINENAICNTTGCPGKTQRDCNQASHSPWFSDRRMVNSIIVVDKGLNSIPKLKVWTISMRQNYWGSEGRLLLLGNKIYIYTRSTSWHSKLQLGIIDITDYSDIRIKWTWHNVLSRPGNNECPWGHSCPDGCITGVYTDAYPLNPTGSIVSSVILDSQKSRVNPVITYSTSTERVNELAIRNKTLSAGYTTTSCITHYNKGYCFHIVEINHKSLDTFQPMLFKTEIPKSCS
Assay [2] has as its target hPIV-3 HN haemagglutinin function (Human parainfluenza 3 virus, UniProt P08492). Kind of assay: cell-based. As to conditions: HI IC50, human red blood cells, 4 °C, 90 min. On the set-up: species or system human parainfluenza virus type 3 (hPIV-3). The procedure: The HN inhibitors were assessed in haemagglutination inhibition assays using human red blood cells (RBC) as previously described[10] with minor modifications. The lowest final concentration of hPIV-3 that leads to a complete agglutination of human-RBC at 4 °C is considered as 1 HAU. 4 haemagglutination units (HAU) of hPIV-3 (final 1 HAU per well) were pre-mixed with inhibitors of each tested concentration (4X dilution in PBS) on ice. Next, an equivalent volume of ice-cold 1% human-RBC in PBS was added to each well of the inhibitor/virus pre-mixture and the plate was then incubated for 90 min at 4 °C before determining the extent of haemagglutination inhibition.

The target in assay [3] is T1, human neuraminidase 2 (hNeu2) (Homo sapiens, UniProt Q9Y3R4).
T1 construct: GST (own knowledge: pGEX-2T encodes an N-terminal GST with a thrombin site); made in house; host or cells: E. coli
T1 sequence (Q9Y3R4 whole entry): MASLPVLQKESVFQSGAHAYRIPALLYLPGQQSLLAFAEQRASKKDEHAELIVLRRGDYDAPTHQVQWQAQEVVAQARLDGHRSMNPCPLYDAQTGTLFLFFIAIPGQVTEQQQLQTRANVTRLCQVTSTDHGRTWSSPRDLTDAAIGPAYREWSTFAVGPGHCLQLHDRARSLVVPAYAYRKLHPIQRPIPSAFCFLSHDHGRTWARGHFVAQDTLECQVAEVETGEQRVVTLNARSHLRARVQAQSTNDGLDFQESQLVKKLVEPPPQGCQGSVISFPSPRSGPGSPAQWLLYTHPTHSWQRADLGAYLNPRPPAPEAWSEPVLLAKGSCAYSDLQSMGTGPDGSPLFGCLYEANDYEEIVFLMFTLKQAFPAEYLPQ
Kind of assay: NI assay with recombinant human neuraminidase 2. As to conditions: inhibitors tested 0.001 μM to 1000 μM, 0.5 mM MUN, pH 5.5. The assay is classed as biochemical. The procedure: Finally, all inhibitors were assessed for cytotoxicity to human A549 cells with no toxicity observed at a concentration of 300 µM (data not shown). In addition, we investigated[9] the capacity of the synthesized inhibitors 5–8 to inhibit human neuraminidase 2 (hNeu2) compared with the well-described neuraminidase inhibitor Neu5Ac2en (2)[28].
The NI assay with human Neuraminidase 2 (hNeu2) was performed as previously described, using 60 ng of purified hNeu2 enzyme in reaction buffer/hNeu2 (NaOAc 50 mM, pH 5.5), supplemented with 10 μg BSA and 0.5 mM MUN per reaction. All inhibitors were tested in duplicate in the concentration range from 0.001 μM to 1000 μM. After 10 min of incubation with agitation (1000 rpm) at 37 °C, the enzymatic reaction was stopped with glycine buffer (glycine 0.25 M, pH 10.4) and the product fluorescence was measured in relative fluorescence units (RFU) using a Victor 3 multilabel reader (PerkinElmer, Waltham, MA). Controls were conducted with MUN and purified hNeu2, the enzymatic reaction was stopped at t = 0 for the negative control and at t = 10 min for the positive control.
The obtained data were normalised by background (negative control RFU) subtraction and processed data were analyzed with GraphPadPrism 4 (GraphPad Software Inc., La Jolla, CA) to calculate IC50 values. The concentration of inhibitor that reduced the neuraminidase activity by 50% compared to those of a non-treated virus/protein suspension was considered as the NI IC50 value.

A further assay has as its system hPIV-3. Kind of assay: Virus growth inhibition by in situ ELISA in A549 cells. In general terms: ELISA stands for enzyme-linked immunosorbent assay.
A further assay concerns the target soluble hPIV-3 HN. Also on record: method as in PMID 23740997. As to conditions: in complex with soluble hPIV-3 HN; cited from earlier work.
The mark [4] stands for this setting: Human respirovirus 3, A549, in Homo sapiens, read-out: Virus growth inhibition IC50, in situ ELISA, human cell line A549, 36–40 h.
[5] abbreviates: read-out: Virus growth inhibition IC50, in situ ELISA, human cell line A549, 36–40 h.

Values joined by “and” are separate entries in the source; they are usually repeats but may differ in a detail not shown here. Identical values can stand only once. Like-named read-outs stand apart in the source and are kept apart here.

Sequence of hPIV-3 HN haemagglutinin function (P08492 whole entry): as the sequence (P08492 whole entry) above

`COCc1cn([C@@H]2[C@@H](NC(=O)C(C)C)[C@H]([C@H](O)[C@H](O)CO)O[C@@](F)(C(=O)O)[C@H]2F)nn1` [Inhibitor 8]: the IC50 in assay [1] was 6.7 µM and 6.75 µM; in assay [2] it was 57 µM; in the assay on hPIV-3 (setting [4]), 14.3 ± 0.3 µM; in the assay with hPIV-3 (setting [5]), 14.3 µM. For the same molecule, in assay [1] (NI IC50 of 8 versus 6), the “increase in potency (NI) compared to Neu2en analogue 6” value is 2 fold. The “Inhibition of hNeu2” value in assay [3] was “No inhibition”.
Take `CC(C)C(=O)N[C@H]1[C@H]([C@H](O)[C@H](O)CO)OC(C(=O)O)=C[C@@H]1n1cc(-c2ccccc2)nn1` [Inhibitor 5, reference compound]: the “Inhibition of hNeu2” value in assay [3] was “No inhibition”. In addition, the IC50 with hPIV-3 (setting [4]) worked out at 11.2 ± 0.9 µM; in the assay on hPIV-3 (setting [5]), 11.2 µM.
For `CC(C)C(=O)N[C@H]1[C@H]([C@H](O)[C@H](O)CO)O[C@@](F)(C(=O)O)[C@@H](F)[C@@H]1n1cc(-c2ccccc2)nn1` [Inhibitor 7], the half-inhibitory concentration (IC50) in assay [1] was 55.3 µM; in assay [2], 775 µM; with hPIV-3 (setting [4]) it was 40.1 ± 7 µM; with hPIV-3 (setting [5]) it was 40.1 µM. Moreover, the “Inhibition of hNeu2” value in assay [3] was “No inhibition”.
On to “Neu5Acα2–3 Galβ1–4GlcNAcβ1–3 Galβ1–4GlcNAc [3′SiaDiLN]”, for which the Kd on soluble hPIV-3 HN is 4300 µM.
Turning to `COCc1cn([C@H]2C=C(C(=O)O)O[C@@H]([C@H](O)[C@H](O)CO)[C@@H]2NC(=O)C(C)C)nn1` [Inhibitor 6, reference compound], the concentration for half-maximal inhibition (IC50) in assay [1] was 14.5 µM; in assay [2] it was 3.88 µM and 3.9 µM; in the assay on hPIV-3 (setting [4]), 82.4 ± 7.7 µM; with hPIV-3 (setting [5]), 82.4 µM. Besides, the “Inhibition of hNeu2” value in assay [3] was “No inhibition”.

For orientation: IC50 means the midpoint of a concentration-inhibition curve. A word on the Kd: it is a measure of binding affinity in units of concentration.
